Patent US20200046811A1, “METHODS AND COMPOSITIONS FOR MODULATING FGF23 LEVELS” (Northwestern University, priority 2014, published 2020)

Columns and labels:
[1] = target: T1, recombinant human stable PAI-1 (Homo sapiens, UniProt P05121, K177T/M377I/N173H/Q342L); experiment: In vitro FGF23 proteolysis by t-PA with PAI-1 and added TM5441; assay type: biochemical; settings: TM5441 added to t-PA + PAI-1 reaction, 4 hours at 37° C., silver stained SDS-PAGE, FIG. 3
T1 construct: purchased Molecular Innovations Inc., Novi, Mich
T1 sequence (P05121 24-402 N173H/K177T/Q342L/M377I): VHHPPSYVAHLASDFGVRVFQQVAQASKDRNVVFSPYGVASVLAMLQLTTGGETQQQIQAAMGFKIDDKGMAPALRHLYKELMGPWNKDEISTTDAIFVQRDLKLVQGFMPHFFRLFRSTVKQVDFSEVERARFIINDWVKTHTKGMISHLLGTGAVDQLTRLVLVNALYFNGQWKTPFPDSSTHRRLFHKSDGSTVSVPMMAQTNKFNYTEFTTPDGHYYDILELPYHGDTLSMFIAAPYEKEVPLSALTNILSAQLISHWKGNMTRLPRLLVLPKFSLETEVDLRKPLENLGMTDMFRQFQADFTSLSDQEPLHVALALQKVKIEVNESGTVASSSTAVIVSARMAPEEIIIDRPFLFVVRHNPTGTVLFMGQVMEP
Protocol: (§1) Recombinant human t-PA, uPA, and stable PAI-1 were obtained from Molecular Innovations Inc., Novi, Mich. Recombinant Human FGF23 was obtained from R and D Systems Inc., Minneapolis Minn.
TM5441 was obtained from Toshio Miyata, M. D., Ph.D. and Renascience, Inc. A stock solution of 2.5 mM was prepared in DMSO.
(§2) Gels were silver stained using the Pierce Silver Stain Kit from Thermo Fisher Scientific Inc. Waltham, Mass., according to the manufacturer's protocol.
(§3) Recombinant human FGF23 (1-1.5 μg) was incubated at 37° C. for 4 hours (or other time point indicated) with either recombinant human t-PA (1.1 μg) or uPA (1.1 μg), (in addition to 1.70 μg of recombinant human stable PAI-1 where indicated) in reaction buffer (25 μl final volume) containing: 50 mM Tris-HCl pH 8.0, 150 mM NaCl, 200 mM CHAPS, 0.1% PEG-8000, and 1% DMSO. To terminate the reaction, samples were incubated at 95° C. for 5 minutes in the presence of 1×NuPAGE LDS sample buffer and 1× NuPAGE sample reducing agent.

Klotho (kl/kl) mice = experiment: TM5441 treatment of Klotho mice, plasma FGF23 by ELISA; assay type: in vivo; settings: 100 mg/kg/day in chow for 120 days, C-Term ELISA (FIG. 1)
Protocol: Four week old Klotho (kl/kl) mice (n=11) were administered TM5441 at the dose of 100 mg/kg/day for 120 days. The chow diet containing the inhibitor was prepared by mixing a homogenous suspension of TM5441 made in 0.5% Carboxy Methyl Cellulose into the powder chow diet (Harland Teklad LM-485 number 7012). The plasma levels of FGF23 was measured using an ELISA kit (Immutopics, Inc. Mouse/Rat FGF-23 (C-Term) ELISA Kit, Cat. #60-6300) by following the manufacturer's protocol.

Recombinant human FGF23 = experiment: In vitro protease reactions: FGF23 proteolysis by t-PA or uPA (silver stained SDS-PAGE, western blot); assay type: biochemical
From the text: as §1
The 6×His tag antibody was obtained from Abcam Inc., Cambridge Mass., and the FGF23 antibody was obtained from Santa Cruz Biotechnology Inc., Dallas Tex. Secondary HRP conjugated donkey anti goat (cross-adsorbed) and goat anti-rabbit antibodies were obtained from Bethyl Laboratories Inc., Montgomery, Tex., and Molecular Innovations Inc. respectively. 4-12% NuPAGE Bis-Tris Gels, PVDF iblot gel transfer stacks, 4×NuPAGE LDS sample buffer and 10×NuPAGE sample reducing agent were from Life Technologies Inc., Carlsbad, Calif. Luminata Forte Western HRP Substrate detection reagent was from EMD Millipore Inc., Billerica, Mass.
as §2
as §3, with “To terminate the reaction, samples were incubated at 95° C. for 5 minutes in the presence of 1×NuPAGE LDS sample buffer and 1× NuPAGE sample reducing agent.” left out

Effect on PAI-1-inhibited FGF23 proteolysis by t-PA [1] | Molecule | FGF23 plasma levels (Klotho (kl/kl) mice) | FGF23 proteolytic cleavage (smaller fragments on silver stained SDS-PAGE gel) (Recombinant human FGF23; 4 hours at 37° C., FIG. 2) | FGF23 fragments by western blot (Recombinant human FGF23; t-PA, various time points at 37° C., N-term and C-term fragments, FIG. 4)
restored | O=C(COCC(=O)Nc1ccc(Cl)cc1C(=O)O)Nc1cccc(-c2ccoc2)c1 [TM5441] | markedly reduced | – | –
– | t-PA: Recombinant human t-PA (tissue plasminogen activator) from Molecular Innovations Inc. | – | smaller fragments are generated | confirmed to be of FGF23 origin
